# Experimental data: patent US4551450A, “Rifamycin hydrazones, pharmaceutical compositions containing them and their use” (Ciba-Geigy Corporation, priority 1984, dated 1985)
# Read-outs that look alike come from different tables or passages of the source.
# Tests used:
# [1] = tested on: Mycobacterium tuberculosis TB H3 Rv; test: Antituberculotic action, minimum inhibitory concentration in a plate test in vitro; type: cell-based; details: M. tuberculosis TB H3 Rv; for MIC: Mycobacterium tuberculosis, TBH3RV, read-out: Antituberculotic action, MIC (minimum inhibitory concentration), plate test in vitro; for Antituberculotic action, MIC (minimum inhibitory concentration): plate test in vitro
# Source text: (§1) (2) Test organism: Mycobacterium tuberculosis TB H3 Rv
# (3) Minimum inhibitory concentration in a plate test in vitro.
# [2] = tested on: Mycobacterium tuberculosis TB H3 Rv; test: Antituberculotic action, in vivo test (mice), administration p.o.; parameters: species or system Mycobacterium tuberculosis; mice; details: for ED50: Mycobacterium tuberculosis, TBH3RV, po
# Source text: as §1
# (4) In vivo test (mice); administration p.o.
# Pharmacokinetics in mice = type: in vivo; details: for half-life / Cmax: mouse; for half-life: read-out: t/2 (half-life period of excretion) (converted); for Cmax / Cmax (highest concentration of the active ingredient in the blood plasma): blood plasma; for Cmax: read-out: Cmax (highest concentration of the active ingredient in the blood plasma)
# Source text: (§2) (5) Half-life period of excretion (in hours).
# (§3) (6) Highest concentration of the active ingredient in the blood plasma.
# Pharmacokinetics in rats = type: in vivo; details: for Cmax / half-life: rat; for Cmax / Cmax (highest concentration of the active ingredient in the blood plasma): blood plasma; for Cmax: read-out: Cmax (highest concentration of the active ingredient in the blood plasma); for half-life: in vivo, read-out: t/2 (half-life period of excretion) (converted)
# Source text: as §2, §3
# tuberculosis infections = details: prior art, U.S. Pat. No. 3,342,810; cited from earlier work
# [3] = prior art statement, in some cases; cited from earlier work
# [4] = in vivo, mice, p.o., read-out: Antituberculotic action, ED50
smiles,measurement,setting,value
"CO[C@H]1/C=C/O[C@@]2(C)Oc3c(C)c(O)c4c(O)c(c(C=NN5CCN6C(C)CCCC6C5)c(O)c4c3C2=O)NC(=O)/C(C)=C\C=C\[C@H](C)[C@H](O)[C@@H](C)[C@@H](O)[C@@H](C)[C@H](OC(C)=O)[C@@H]1C (some centres unmarked) [Example 3, hydrazone of 3-formylrifamycin SV with 3-amino-8-methylperhydro-1H-pyrido[1,2-a]pyrazine]",MIC,[1],0.4 µg/mL
same,ED50,"[2]; read-out: Antituberculotic action, ED50, in vivo, mice, p.o.",1 mg/kg
same,half-life,Pharmacokinetics in mice; in vivo,14 h
same,Cmax,Pharmacokinetics in mice; plasma,22600 ng/mL
"CO[C@H]1/C=C/O[C@@]2(C)Oc3c(C)c(O)c4c(O)c(c(/C=N/N5CCN(C)CC5)c(O)c4c3C2=O)NC(=O)/C(C)=C\C=C\[C@H](C)[C@H](O)[C@@H](C)[C@@H](O)[C@@H](C)[C@H](OC(C)=O)[C@@H]1C [Rifampicin, hydrazone of 3-formylrifamycin SV with 1-amino-4-methylpiperazine, reference compound]",MIC,[1],0.03 µg/mL
same,ED50,[2]; [4],5.9 mg/kg
same,Cmax,Pharmacokinetics in mice; plasma,24800 ng/mL
same,Cmax,Pharmacokinetics in rats,13900 ng/mL
same,antituberculotic activity,tuberculosis infections,excellent antituberculotic activity
same,dwell time in the organism,[3],relatively short dwell time in the organism
"COC1C=COC2(C)Oc3c(C)c(O)c4c(O)c(c(C=NN5CCN6CCN(C)CC6C5)c(O)c4c3C2=O)NC(=O)C(C)=CC=CC(C)C(O)C(C)C(O)C(C)C(OC(C)=O)C1C (centres unmarked) [Example 9, hydrazone of 3-formylrifamycin SV with 3-amino-6-methylperhydro-1H-pyrazino[1,2-a]pyrazine]","Antituberculotic action, MIC (minimum inhibitory concentration)",[1],0.1 µg/mL
"CO[C@H]1/C=C/O[C@@]2(C)Oc3c(C)c(O)c4c(O)c(c(C=NN5CCN6CCCC6C5)c(O)c4c3C2=O)NC(=O)/C(C)=C\C=C\[C@H](C)[C@H](O)[C@@H](C)[C@@H](O)[C@@H](C)[C@H](OC(C)=O)[C@@H]1C (some centres unmarked) [Example 2, hydrazone of 3-formylrifamycin SV with 3-aminoperhydropyrrolo[1,2-a]pyrazine]",MIC,[1],0.1 µg/mL
same,ED50,[2]; [4],2.5 mg/kg
same,half-life,Pharmacokinetics in mice; in vivo,9.1 h
same,Cmax,Pharmacokinetics in mice; plasma,57700 ng/mL
same,half-life,Pharmacokinetics in rats,13.2 h
same,Cmax,Pharmacokinetics in rats; plasma,11600 ng/mL
"COC1C=COC2(C)Oc3c(C)c(O)c4c(O)c(c(C=NN5CC6CCCCN6CC5C)c(O)c4c3C2=O)NC(=O)C(C)=CC=CC(C)C(O)C(C)C(O)C(C)C(OC(C)=O)C1C (single isomer, unassigned) [Example 5 Isomer A, hydrazone of 3-formylrifamycin SV with 3-amino-2-methylperhydro-1H-pyrido[1,2-a]pyrazine]","Antituberculotic action, MIC (minimum inhibitory concentration)",[1]; listed as 5 Isomer A,0.2 µg/mL
same,ED50,[2]; [4],3 mg/kg
same,Cmax (highest concentration of the active ingredient in the blood plasma),Pharmacokinetics in mice; listed as 5 Isomer A,15000 ng/mL
same,t/2 (half-life period of excretion),Pharmacokinetics in mice; listed as 5 Isomer A,69.3 h
same,half-life,Pharmacokinetics in rats,58.5 h
same,Cmax,Pharmacokinetics in rats; plasma,19700 ng/mL
"CO[C@H]1/C=C/O[C@@]2(C)Oc3c(C)c(O)c4c(O)c(c(C=NN5CCN6C(CCC7CCCCC76)C5)c(O)c4c3C2=O)NC(=O)/C(C)=C\C=C\[C@H](C)[C@H](O)[C@@H](C)[C@@H](O)[C@@H](C)[C@H](OC(C)=O)[C@@H]1C (single isomer, unassigned) [Example 6 Isomer A, hydrazone of 3-formylrifamycin SV with 3-aminoperhydro-1H-pyrazino[1,2-a]quinoline]","Antituberculotic action, MIC (minimum inhibitory concentration)",[1]; listed as 6 Isomer A,0.03 µg/mL
same,Cmax,Pharmacokinetics in mice; in vivo,56300 ng/mL
same,half-life,Pharmacokinetics in mice; in vivo,33.4 h
"COC1C=COC2(C)Oc3c(C)c(O)c4c(O)c(c(C=NN5CC6CCCCN6CC5C)c(O)c4c3C2=O)NC(=O)C(C)=CC=CC(C)C(O)C(C)C(O)C(C)C(OC(C)=O)C1C (single isomer, unassigned) [Example 5 Isomer D, hydrazone of 3-formylrifamycin SV with 3-amino-2-methylperhydro-1H-pyrido[1,2-a]pyrazine]","Antituberculotic action, MIC (minimum inhibitory concentration)",[1]; listed as 5 Isomer D,0.06 µg/mL
same,"Antituberculotic action, ED50","[2]; in vivo, mice, p.o., listed as 5 Isomer D",3 mg/kg
same,Cmax (highest concentration of the active ingredient in the blood plasma),Pharmacokinetics in mice; listed as 5 Isomer D,33600 ng/mL
same,t/2 (half-life period of excretion),Pharmacokinetics in mice; listed as 5 Isomer D,25.1 h
"CCC1CCC2CN(N=Cc3c4c(O)c5c(O)c(C)c6c(c5c3O)C(=O)[C@@](C)(O/C=C/[C@H](OC)[C@@H](C)[C@@H](OC(C)=O)[C@H](C)[C@H](O)[C@H](C)[C@@H](O)[C@@H](C)/C=C/C=C(/C)C(=O)N4)O6)CCN2C1 (single isomer, unassigned) [Example 4 Isomer B, hydrazone of 3-formylrifamycin SV with 3-amino-7-ethylperhydro-1H-pyrido[1,2-a]pyrazine]","Antituberculotic action, MIC (minimum inhibitory concentration)",[1]; listed as 4 Isomer B,0.03 µg/mL
same,"Antituberculotic action, ED50","[2]; in vivo, mice, p.o.",1 mg/kg
same,t/2 (half-life period of excretion),Pharmacokinetics in mice,44.6 h
same,Cmax (highest concentration of the active ingredient in the blood plasma),Pharmacokinetics in mice,26400 ng/mL
"COC1C=COC2(C)Oc3c(C)c(O)c4c(O)c(c(C=NN5CC6CCCCN6CC5C)c(O)c4c3C2=O)NC(=O)C(C)=CC=CC(C)C(O)C(C)C(O)C(C)C(OC(C)=O)C1C (single isomer, unassigned) [Example 5 Isomer C, hydrazone of 3-formylrifamycin SV with 3-amino-2-methylperhydro-1H-pyrido[1,2-a]pyrazine]","Antituberculotic action, MIC (minimum inhibitory concentration)",[1]; listed as 5 Isomer C,0.06 µg/mL
same,"Antituberculotic action, ED50","[2]; in vivo, mice, p.o., listed as 5 Isomer C",3 mg/kg
same,Cmax (highest concentration of the active ingredient in the blood plasma),Pharmacokinetics in mice; listed as 5 Isomer C,23700 ng/mL
same,t/2 (half-life period of excretion),Pharmacokinetics in mice; listed as 5 Isomer C,15 h
"COC1C=COC2(C)Oc3c(C)c(O)c4c(O)c(c(C=NN5CC6CCCCN6CC5C)c(O)c4c3C2=O)NC(=O)C(C)=CC=CC(C)C(O)C(C)C(O)C(C)C(OC(C)=O)C1C (single isomer, unassigned) [Example 5 Isomer B, hydrazone of 3-formylrifamycin SV with 3-amino-2-methylperhydro-1H-pyrido[1,2-a]pyrazine]","Antituberculotic action, MIC (minimum inhibitory concentration)",[1]; listed as 5 Isomer B,0.4 µg/mL
same,"Antituberculotic action, ED50","[2]; in vivo, mice, p.o., listed as 5 Isomer B",2 mg/kg
same,Cmax (highest concentration of the active ingredient in the blood plasma),Pharmacokinetics in mice; listed as 5 Isomer B,38800 ng/mL
same,t/2 (half-life period of excretion),Pharmacokinetics in mice; listed as 5 Isomer B,66 h
same,t/2 (half-life period of excretion),Pharmacokinetics in rats,44.7 h
same,Cmax (highest concentration of the active ingredient in the blood plasma),Pharmacokinetics in rats,16400 ng/mL
"CO[C@H]1/C=C/O[C@@]2(C)Oc3c(C)c(O)c4c(O)c(c(C=NN5CCN6C(CCC7CCCCC76)C5)c(O)c4c3C2=O)NC(=O)/C(C)=C\C=C\[C@H](C)[C@H](O)[C@@H](C)[C@@H](O)[C@@H](C)[C@H](OC(C)=O)[C@@H]1C (single isomer, unassigned) [Example 6 Isomer B, hydrazone of 3-formylrifamycin SV with 3-aminoperhydro-1H-pyrazino[1,2-a]quinoline]","Antituberculotic action, MIC (minimum inhibitory concentration)",[1]; listed as 6 Isomer B,0.007 µg/mL
same,t/2 (half-life period of excretion),Pharmacokinetics in mice,40.9 h
same,Cmax (highest concentration of the active ingredient in the blood plasma),Pharmacokinetics in mice,34000 ng/mL
"CO[C@H]1/C=C/O[C@@]2(C)Oc3c(C)c(O)c4c(O)c(c(C=NN5CCN6CCSCC6C5)c(O)c4c3C2=O)NC(=O)/C(C)=C\C=C\[C@H](C)[C@H](O)[C@@H](C)[C@@H](O)[C@@H](C)[C@H](OC(C)=O)[C@@H]1C (some centres unmarked) [Example 8, hydrazone of 3-formylrifamycin SV with 6-aminoperhydropyrazolo[2,1-c]-p-thiazine]",MIC,[1],0.2 µg/mL
same,ED50,[2]; [4],8 mg/kg
same,half-life,Pharmacokinetics in mice; in vivo,8.9 h
same,Cmax,Pharmacokinetics in mice; plasma,72000 ng/mL
"CO[C@H]1/C=C/O[C@@]2(C)Oc3c(C)c(O)c4c(O)c(c(C=NN5CCN6c7ccccc7CCC6C5)c(O)c4c3C2=O)NC(=O)/C(C)=C\C=C\[C@H](C)[C@H](O)[C@@H](C)[C@@H](O)[C@@H](C)[C@H](OC(C)=O)[C@@H]1C (some centres unmarked) [Example 7, hydrazone of 3-formylrifamycin SV with 3-amino-2,3,4,4a,5,6-hexahydro-1H-pyrazino[1,2-a]quinoline]",MIC,[1],0.06 µg/mL
same,ED50,[2]; [4],4.5 mg/kg
same,half-life,Pharmacokinetics in mice; in vivo,32.2 h
same,Cmax,Pharmacokinetics in mice; plasma,24000 ng/mL
COC1C=COC2(C)Oc3c(C)c(O)c4c(O)c(c(C=NN5CCN6CCCCC6C5)c(O)c4c3C2=O)NC(=O)C(C)=CC=CC(C)C(O)C(C)C(O)C(C)C(OC(C)=O)C1C (centres unmarked) [Example 1],"Antituberculotic action, MIC (minimum inhibitory concentration)",[1],0.03 µg/mL
same,"Antituberculotic action, ED50","[2]; in vivo, mice, p.o.",0.8 mg/kg
same,t/2 (half-life period of excretion),Pharmacokinetics in mice,20 h
same,Cmax (highest concentration of the active ingredient in the blood plasma),Pharmacokinetics in mice,27300 ng/mL
same,t/2 (half-life period of excretion),Pharmacokinetics in rats,17.0 h
same,Cmax (highest concentration of the active ingredient in the blood plasma),Pharmacokinetics in rats,24500 ng/mL
"CCC1CCC2CN(N=Cc3c4c(O)c5c(O)c(C)c6c(c5c3O)C(=O)[C@@](C)(O/C=C/[C@H](OC)[C@@H](C)[C@@H](OC(C)=O)[C@H](C)[C@H](O)[C@H](C)[C@@H](O)[C@@H](C)/C=C/C=C(/C)C(=O)N4)O6)CCN2C1 (single isomer, unassigned) [Example 4 Isomer A, hydrazone of 3-formylrifamycin SV with 3-amino-7-ethylperhydro-1H-pyrido[1,2-a]pyrazine]","Antituberculotic action, MIC (minimum inhibitory concentration)",[1]; listed as 4 Isomer A,0.01 µg/mL
same,ED50,[2]; [4],0.8 mg/kg
same,half-life,Pharmacokinetics in mice; in vivo,55.1 h
same,Cmax,Pharmacokinetics in mice; plasma,29500 ng/mL
